In PubChem BioAssay AID250 (DTP/NCI, 2004):
Values joined by “and” are separate entries in the source; they are usually repeats but may differ in a detail not shown here. Equal entries are not always repeated. Inconclusive results and toxic doses are left out. Rule for the calls: active = survival T/C of 150% or more; inactive = T/C below 125% in these data.

System: BDF1 mice, L1210 leukemia sc, survival T/C
Test: NCI In Vivo Anticancer Drug Screen. Data for tumor model L1210 Leukemia (subcutaneous) in B6D2F1 (BDF1) mice
Conditions: endpoint: median survival time, higher = longer survival
Outline: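 Antitumor activity is assessed in mice with transplanted tumors by comparing the treated group (T) with the vehicle control group (C).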

Measured: T/C

N=c1ccn2c(n1)OC1C(O)C(CO)OC12 (stereo not given)
inactive: dose: 300.0 mg/kg/injection, schedule: Q01DX001 (sc), vehicle: water 120 % of control | dose: 800.0 mg/kg/injection, schedule: Q01DX009 (ip), vehicle: water 122 % of control | dose: 800.0 mg/kg/injection, schedule: Q01DX009 (sc), vehicle: water 88 % of control | dose: 800.0 mg/kg/injection, schedule: Q## X009 (sc), vehicle: water 88 % of control | dose: 1200.0 mg/kg/injection, schedule: Q01DX009 (oral), vehicle: water 100 % of control | dose: 2400.0 mg/kg/injection, schedule: Q03HX008 (sc), vehicle: water 90 % of control
active: dose: 9.38 mg/kg/injection, schedule: Q03HX024 (sc), vehicle: water 190 % of control | dose: 18.75 mg/kg/injection, schedule: Q03HX024 (sc), vehicle: water 200 % of control | dose: 25.0 mg/kg/injection, schedule: Q01DX009 (sc), vehicle: water 203 % of control and 170 % of control | dose: 25.0 mg/kg/injection, schedule: Q## X009 (sc), vehicle: water 203 % of control and 172 % of control | dose: 37.5 mg/kg/injection, schedule: Q01DX008 (sc), vehicle: water 227 % of control and 228 % of control | dose: 37.5 mg/kg/injection, schedule: Q01DX009 (sc), vehicle: water 180 % of control | dose: 37.5 mg/kg/injection, schedule: Q03HX024 (sc), vehicle: water 205 % of control | dose: 50.0 mg/kg/injection, schedule: Q01DX009 (sc), vehicle: water 184 % of control [middle of 4 runs] | dose: 50.0 mg/kg/injection, schedule: Q## X009 (sc), vehicle: water 214 % of control and 188 % of control | dose: 65.0 mg/kg/injection, schedule: Q01DX009 (sc), vehicle: water 191 % of control | dose: 75.0 mg/kg/injection, schedule: Q01DX008 (sc), vehicle: water 228 % of control and 233 % of control | dose: 75.0 mg/kg/injection, schedule: Q01DX009 (oral), vehicle: water 180 % of control | dose: 75.0 mg/kg/injection, schedule: Q01DX009 (sc), vehicle: water 203 % of control and 190 % of control | dose: 75.0 mg/kg/injection, schedule: Q03HX024 (sc), vehicle: water 220 % of control | dose: 75.0 mg/kg/injection, schedule: Q## X009 (sc), vehicle: water 203 % of control | dose: 100.0 mg/kg/injection, schedule: Q01DX009 (ip), vehicle: saline 168 % of control and 172 % of control | dose: 100.0 mg/kg/injection, schedule: Q01DX009 (ip), vehicle: water 205 % of control | dose: 100.0 mg/kg/injection, schedule: Q01DX009 (sc), vehicle: water 206 % of control [middle of 4 runs] | dose: 100.0 mg/kg/injection, schedule: Q## X009 (sc), vehicle: water 222 % of control and 211 % of control | dose: 108.0 mg/kg/injection, schedule: Q01DX009 (sc), vehicle: water 183 % of control | dose: 108.0 mg/kg/injection, schedule: Q01DX014 (sc), vehicle: water 210 % of control | dose: 108.0 mg/kg/injection, schedule: Q01DX015 (sc), vehicle: water 194 % of control and 200 % of control | dose: 150.0 mg/kg/injection, schedule: Q01DX008 (sc), vehicle: water 247 % of control and 250 % of control | dose: 150.0 mg/kg/injection, schedule: Q01DX009 (oral), vehicle: water 175 % of control | dose: 150.0 mg/kg/injection, schedule: Q01DX009 (sc), vehicle: water 233 % of control and 200 % of control | dose: 150.0 mg/kg/injection, schedule: Q03HX008 (sc), vehicle: water 150 % of control | dose: 150.0 mg/kg/injection, schedule: Q03HX024 (sc), vehicle: water 210 % of control | dose: 150.0 mg/kg/injection, schedule: Q## X009 (sc), vehicle: water 233 % of control | dose: 180.0 mg/kg/injection, schedule: Q01DX009 (sc), vehicle: water 207 % of control | dose: 180.0 mg/kg/injection, schedule: Q01DX014 (sc), vehicle: water 253 % of control | dose: 180.0 mg/kg/injection, schedule: Q01DX015 (sc), vehicle: water 222 % of control and 223 % of control | dose: 200.0 mg/kg/injection, schedule: Q01DX009 (ip), vehicle: saline 180 % of control and 190 % of control | dose: 200.0 mg/kg/injection, schedule: Q01DX009 (ip), vehicle: water 227 % of control | dose: 200.0 mg/kg/injection, schedule: Q01DX009 (sc), vehicle: water 236 % of control [middle of 4 runs] | dose: 200.0 mg/kg/injection, schedule: Q## X009 (sc), vehicle: water 247 % of control and 238 % of control | dose: 300.0 mg/kg/injection, schedule: Q01DX008 (sc), vehicle: water 235 % of control and 238 % of control | dose: 300.0 mg/kg/injection, schedule: Q01DX009 (ip), vehicle: saline 202 % of control and 209 % of control | dose: 300.0 mg/kg/injection, schedule: Q01DX009 (oral), vehicle: water 195 % of control | dose: 300.0 mg/kg/injection, schedule: Q01DX009 (sc), vehicle: water 180 % of control and 183 % of control (2×) | dose: 300.0 mg/kg/injection, schedule: Q01DX014 (sc), vehicle: water 239 % of control | dose: 300.0 mg/kg/injection, schedule: Q01DX015 (sc), vehicle: water 227 % of control and 231 % of control | dose: 300.0 mg/kg/injection, schedule: Q03HX008 (sc), vehicle: water 155 % of control | dose: 300.0 mg/kg/injection, schedule: Q04DX003 (sc), vehicle: water 150 % of control | dose: 300.0 mg/kg/injection, schedule: Q## X009 (sc), vehicle: water 218 % of control | dose: 400.0 mg/kg/injection, schedule: Q01DX009 (ip), vehicle: water 177 % of control | dose: 400.0 mg/kg/injection, schedule: Q01DX009 (sc), vehicle: water 200 % of control and 209 % of control and 304 % of control | dose: 500.0 mg/kg/injection, schedule: Q01DX014 (sc), vehicle: water 163 % of control | dose: 500.0 mg/kg/injection, schedule: Q01DX015 (sc), vehicle: water 211 % of control and 233 % of control | dose: 600.0 mg/kg/injection, schedule: Q01DX008 (sc), vehicle: water 172 % of control and 180 % of control | dose: 600.0 mg/kg/injection, schedule: Q01DX009 (oral), vehicle: water 155 % of control | dose: 600.0 mg/kg/injection, schedule: Q04DX003 (sc), vehicle: water 170 % of control | dose: 1200.0 mg/kg/injection, schedule: Q04DX003 (sc), vehicle: water 195 % of control | dose: 1600.0 mg/kg/injection, schedule: Q01DX001 (sc), vehicle: water 150 % of control and 157 % of control | dose: 2400.0 mg/kg/injection, schedule: Q01DX001 (sc), vehicle: water 150 % of control
